# The supplement of paper PMC10307832
# Compound: COc1cccc2c1C(=O)c1c(O)c3c(c(O)c1C2=O)C[C@@](O)(C(=O)CO)C[C@@H]3O[C@H]1C[C@H](N)[C@H](O)[C@H](C)O1 [Doxorubicin] + N=C(N)NC(=N)NCCc1ccccc1 [Phenformin] (partner 250 µM)
# Assay: relative viability (nuclei count vs DMSO), 5 days (fraction); higher = more cells survive
# Conditions: first compound 0.001 µM
# Procedure, shortened: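 Dosing by pin tool came one day after lung cancer cell lines were seeded in 1536-well plates, using either one drug or a fixed anchor-drug dose plus five library-drug doses (not always all listed) in √10 steps. After 5 days, nuclei were counted on 4× images. Relative viability is treated-well nuclei count divided by vehicle-well nuclei count, and values are medians of duplicate plates.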
row,Cell Line,relative viability
1,HARA,0.424
2,SW 900,0.704
3,HCC-827,0.429
4,NCI-H520,0.626
5,LOU-NH91,0.505
6,NCI-H2023,0.431
7,A-427,0.263
8,NCI-H647,0.539
9,PC-3 [JPC-3],0.448
10,NCI-H1755,0.612
11,NCI-H650,0.543
12,NCI-H3122,0.369
13,NCI-H1395,0.43
14,201T,0.442
15,NCI-H1975,0.397
16,HOP-62,0.654
17,NCI-H2405,0.346
18,NCI-H1355,0.423
19,NCI-H838,0.502
20,CAL-12T,0.514
21,NCI-H1666,0.604
22,EPLC-272H,0.325
23,NCI-H2347,0.434
24,NCI-H1915,0.354
25,NCI-H1437,0.317
26,NCI-H460,0.435
27,NCI-H2085,0.733
28,NCI-H1944,0.182
29,EKVX,0.255

# Same assay, conditions: first compound 0.003162 µM
row,Cell Line,relative viability
1,HARA,0.616
2,SW 900,0.685
3,HCC-827,0.409
4,NCI-H520,0.531
5,LOU-NH91,0.695
6,NCI-H2023,0.398
7,A-427,0.337
8,NCI-H647,0.494
9,PC-3 [JPC-3],0.478
10,NCI-H1755,0.642
11,NCI-H650,0.419
12,NCI-H3122,0.365
13,NCI-H441,0.682
14,NCI-H1395,0.44
15,201T,0.476
16,NCI-H1975,0.422

row,Cell Line,relative viability
1,HOP-62,0.625
2,NCI-H2405,0.373
3,NCI-H1355,0.488
4,NCI-H838,0.607
5,CAL-12T,0.538
6,NCI-H1666,0.504
7,EPLC-272H,0.32
8,NCI-H2347,0.513
9,NCI-H1915,0.355
10,NCI-H1437,0.269
11,NCI-H460,0.449
12,NCI-H1792,0.299
13,NCI-H2085,0.709
14,HCC-15,0.518
15,NCI-H1944,0.224
16,EKVX,0.236

# Same assay, conditions: first compound 0.01 µM
row,Cell Line,relative viability
1,HARA,0.444
2,SW 900,0.607
3,HCC-827,0.401
4,NCI-H520,0.611
5,LOU-NH91,0.783
6,NCI-H2023,0.321
7,A-427,0.292
8,NCI-H647,0.432
9,PC-3 [JPC-3],0.515
10,NCI-H1755,0.618
11,NCI-H650,0.509
12,NCI-H3122,0.337
13,NCI-H441,0.438
14,NCI-H1395,0.447
15,201T,0.468
16,NCI-H1975,0.383

row,Cell Line,relative viability
1,HOP-62,0.631
2,NCI-H2405,0.436
3,NCI-H1355,0.465
4,NCI-H838,0.556
5,CAL-12T,0.412
6,NCI-H1666,0.481
7,EPLC-272H,0.395
8,NCI-H2347,0.428
9,NCI-H1915,0.367
10,NCI-H1437,0.242
11,NCI-H460,0.179
12,NCI-H1792,0.262
13,NCI-H2085,0.653
14,HCC-15,0.355
15,NCI-H1944,0.206
16,EKVX,0.237

# Same assay, conditions: first compound 0.03162 µM
row,Cell Line,relative viability
1,HARA,0.409
2,SW 900,0.328
3,HCC-827,0.401
4,NCI-H520,0.465
5,LOU-NH91,0.698
6,NCI-H2023,0.126
7,A-427,0.337
8,NCI-H647,0.231
9,PC-3 [JPC-3],0.468
10,NCI-H1755,0.675
11,NCI-H650,0.424
12,NCI-H3122,0.245
13,NCI-H441,0.218
14,NCI-H1395,0.414
15,201T,0.416
16,NCI-H1975,0.219

row,Cell Line,relative viability
1,HOP-62,0.542
2,NCI-H2405,0.419
3,NCI-H1355,0.449
4,NCI-H838,0.346
5,CAL-12T,0.221
6,NCI-H1666,0.368
7,EPLC-272H,0.256
8,NCI-H2347,0.374
9,NCI-H1915,0.375
10,NCI-H1437,0.256
11,NCI-H460,0.0505
12,NCI-H1792,0.337
13,NCI-H2085,0.545
14,HCC-15,0.148
15,NCI-H1944,0.177
16,EKVX,0.245

# Same assay, conditions: first compound 0.1 µM
row,Cell Line,relative viability
1,HARA,0.439
2,SW 900,0.138
3,HCC-827,0.408
4,NCI-H520,0.347
5,LOU-NH91,0.591
6,NCI-H2023,0.0808
7,A-427,0.33
8,NCI-H647,0.103
9,PC-3 [JPC-3],0.471
10,NCI-H1755,0.626
11,NCI-H650,0.373
12,NCI-H3122,0.148
13,NCI-H441,0.245
14,NCI-H1395,0.449
15,201T,0.432
16,NCI-H1975,0.179

row,Cell Line,relative viability
1,HOP-62,0.484
2,NCI-H2405,0.355
3,NCI-H1355,0.416
4,NCI-H838,0.19
5,CAL-12T,0.129
6,NCI-H1666,0.337
7,EPLC-272H,0.299
8,NCI-H2347,0.273
9,NCI-H1915,0.353
10,NCI-H1437,0.158
11,NCI-H460,0.0155
12,NCI-H1792,0.19
13,NCI-H2085,0.478
14,HCC-15,0.135
15,NCI-H1944,0.172
16,EKVX,0.22
